pIC50: −log10 of the molar value.
What was measured:
[1] = Antioxidant activity assessed as inhibition of copper-induced human LDL oxidation; assay type: functional
[2] = Antioxidant activity assessed as inhibition of endothelial cell-induced human LDL oxidation; assay type: functional, cell-based

Row | pIC50 [1] | pIC50 [2] | Compound
1 | < 4.00 | – | O=c1cc(-c2ccc(O)cc2)oc2cc(O)ccc12
2 | 7.00 | – | CC(C)(C)c1cc(-c2cc(=O)c3ccc(OCC(O)CO)cc3o2)cc(C(C)(C)C)c1O (stereo not drawn)
3 | 6.00 | – | COc1ccc2c(=O)cc(-c3cc(C(C)(C)C)c(O)c(C(C)(C)C)c3)oc2c1
4 | < 4.00 | – | COc1ccc2c(=O)cc(-c3cc(C(C)(C)C)c(OC)c(C(C)(C)C)c3)oc2c1
5 | 7.00 | – | CC(C)(C)c1cc(-c2cc(=O)c3ccc(OCC(=O)O)cc3o2)cc(C(C)(C)C)c1O [listing 1 of 2 here]
6 | 5.30 | – | CCCCCOC(=O)COc1ccc2c(=O)cc(-c3cc(C(C)(C)C)c(O)c(C(C)(C)C)c3)oc2c1
7 | 5.52 | – | CC(C)(C)c1cc(-c2cc(=O)c3ccc(OCC(=O)N4CCCCC4)cc3o2)cc(C(C)(C)C)c1O
8 | 5.52 | – | CC(C)(C)c1cc(-c2cc(=O)c3ccc(OCc4ccc5ccccc5n4)cc3o2)cc(C(C)(C)C)c1O
9 | 6.15 | – | CN(C)CCCOc1ccc2c(=O)cc(-c3cc(C(C)(C)C)c(O)c(C(C)(C)C)c3)oc2c1
10 | 5.52 | – | CCOC(=O)CCCCOc1ccc2c(=O)cc(-c3cc(C(C)(C)C)c(O)c(C(C)(C)C)c3)oc2c1
11 | 6.30 | – | CC(C)(C)c1cc(-c2cc(=O)c3ccc(OCCCS(=O)(=O)O)cc3o2)cc(C(C)(C)C)c1O
12 | 5.52 | 5.60 | CC(C)(C)c1cc(-c2cc(=O)c3ccccc3o2)cc(C(C)(C)C)c1O
13 | 5.15 | – | CC(C)(C)c1cc(-c2cc(=O)c3ccc(OCc4ccc(Cl)cc4)cc3o2)cc(C(C)(C)C)c1O
14 | 5.52 | 6.30 | CCOC(=O)C(C)(C)Oc1ccc2c(=O)cc(-c3cc(C(C)(C)C)c(O)c(C(C)(C)C)c3)oc2c1
15 | 5.30 | 4.30 | CCCCCCOc1ccc2c(=O)cc(-c3cc(C(C)(C)C)c(O)c(C(C)(C)C)c3)oc2c1
16 | 4.52 | 4.15 | CC(C)(C)c1cc(C(=O)Oc2ccc3c(=O)cc(-c4cc(C(C)(C)C)c(O)c(C(C)(C)C)c4)oc3c2)cc(C(C)(C)C)c1O
17 | 5.52 | – | CC(C)(C)c1cc(-c2cc(=O)c3ccc(OCC(=O)N4CCN(Cc5ccccc5)CC4)cc3o2)cc(C(C)(C)C)c1O
18 | 5.52 | 6.30 | CC(C)(C)c1cc(-c2cc(=O)c3ccc(OCC(=O)O)cc3o2)cc(C(C)(C)C)c1O [listing 2 of 2 here]
19 | 5.52 | – | CCN(CC)C(=O)COc1ccc2c(=O)cc(-c3cc(C(C)(C)C)c(O)c(C(C)(C)C)c3)oc2c1
20 | 6.15 | – | CN(C)CCOc1ccc2c(=O)cc(-c3cc(C(C)(C)C)c(O)c(C(C)(C)C)c3)oc2c1
21 | 5.52 | – | CC(C)(C)c1cc(-c2cc(=O)c3ccc(OCCO)cc3o2)cc(C(C)(C)C)c1O
22 | 5.52 | 6.10 | CCOC(=O)COc1ccc2c(=O)cc(-c3cc(C(C)(C)C)c(O)c(C(C)(C)C)c3)oc2c1
23 | 6.10 | 6.10 | CC(C)(C)c1cc(-c2cc(=O)c3ccc(OCCN4CCOCC4)cc3o2)cc(C(C)(C)C)c1O
24 | 6.00 | 5.70 | CC(C)(C)c1cc(-c2cc(=O)c3ccc(O)cc3o2)cc(C(C)(C)C)c1O
25 | < 4.00 | – | O=c1cc(-c2ccc(O)cc2)oc2cc(O)cc(O)c12 [APIGENIN]
26 | 5.52 | – | Cc1cc(C(C)(C)C)c(O)c(C(C)(C)C)c1 [BUTYLATED HYDROXYTOLUENE]
27 | 5.52 | 5.40 | CC(C)(Sc1cc(C(C)(C)C)c(O)c(C(C)(C)C)c1)Sc1cc(C(C)(C)C)c(O)c(C(C)(C)C)c1 [PROBUCOL]
28 | < 4.00 | 5.40 | VITAMIN E

Source: ChEMBL document CHEMBL1150096, “Synthesis and evaluation of 3',5'-di-tert-butyl-4'-hydroxyflavones as potential inhibitors of low density lipoprotein (LDL) oxidation” (J Nat Prod, 1995)
